Source: PubChem BioAssay AID2401 (Southern Research Specialized Biocontainment Screening …, 2010)

Tested on: S. Typhimurium GFP reporter counter-screen, fluorescence, 4 h
Test: S. Typhimurium nonspecific reporter signal inhibition – Salmonella Typhimurium, GFP fluorescence, counter-screen for PhoP regulon inhibitor project, dose response (AID 2401);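 also: S. typhimurium with Mg-insensitive nmpC-GFP reporter grown at 10 µM Mg2+; drop in reporter fluorescence reflects general culture growth inhibition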

Compound | IC50
COc1ccccc1CNCC(O)Cn1c2ccccc2c2ccccc21 (stereo not given) | 92 µM
NCCc1c(-c2ccccc2)n(-c2ccccc2)c2ccccc12 | 43.7 µM
COc1c(F)c(F)cc2c(=O)c(C(=O)O)cn(C3CC3)c12 | 85.6 µM
Nc1nc2ccccc2n1CCOc1ccccc1Cl | 71.8 µM
CN(C)[C@@H]1C(=O)C(C(N)=O)=C(O)[C@@]2(O)C(=O)C3=C(O)c4c(O)cccc4[C@@](C)(O)C3[C@H](O)C12 (stereo not given in full) | 0.79 µM
NC1CCN(c2nc3c(cc2F)c(=O)c(C(=O)O)cn3-c2ccc(F)cc2F)C1 (stereo not given) | 1.13 µM
O=C(N/N=C/c1cccs1)c1cccs1 | 67.8 µM
CNC(=S)N1CCN(c2c(F)cc3c(=O)c(C(=O)O)cn(C4CC4)c3c2OC)CC1C (stereo not given) | 44.2 µM
Cc1cc(SCC(=O)N/N=C/c2ccc(O)c(O)c2O)c(C)cc1Br | 30.6 µM
O=C(N/N=C/c1ccc([N+](=O)[O-])s1)C(O)c1ccccc1 (stereo not given) | 49 µM
Cc1cc(C)n(-c2nc(NCCN(C)C)c3c4c(sc3n2)CCCC4)n1 | 92.1 µM
CCCCCCCCCC[n+]1cccc2c3ccccc3ccc21 | 23.4 µM
CC1CCCC(C)N1/N=C/c1c[nH]c2ccc(Br)cc12 (stereo not given) | 88.9 µM
O=[N+]([O-])c1cc(Cl)c(O)c2ncccc12 | 5 µM
CCCCCCCCCCCCCCCC[n+]1cccc(C(=O)N(CC)CC)c1 | 20.1 µM
CC[n+]1c(/C=C/c2ccc(N(C)C)cc2)ccc2ccccc21 | 37.3 µM
CCn1cc(C(=O)O)c(=O)c2cc(F)c(N3CCN(C(=S)NC(=O)c4ccccc4C)CC3)cc21 | 27.6 µM
O=Cc1ccc(O)c2ncccc12 | 8.12 µM
N=c1n(Cc2ccccc2)c2ccccc2n1CC(O)COc1ccc(Cl)cc1Cl (stereo not given) | 25.9 µM
Oc1ccc(CN2CCc3ccccc3C2)c2cccnc12 | 18.5 µM
Oc1ccc(CN2CCCc3ccccc32)c2cccnc12 | 28.5 µM
CCn1cc(C(=O)O)c(=O)c2cc(F)c(N3CCN(C(=S)Nc4ccccc4OC)CC3)cc21 | 38.8 µM
OC(c1cc(-c2ccc(C(F)(F)F)cc2)nc(C(F)(F)F)c1)C1CCCCN1 (stereo not given) | 29.5 µM
COc1c(N2CCN(C(=S)Nc3ccccc3F)C(C)C2)c(F)cc2c(=O)c(C(=O)O)cn(C3CC3)c12 (stereo not given) | 15.3 µM
Clc1ccc(CNCc2cccs2)cc1Cl | 76.1 µM
CCCc1cnc(NCCNCC(O)COc2ccc(Cl)c(Cl)c2)nc1 (stereo not given) | 40.3 µM
CN(C)c1ccc(/C=C/c2ccc3ccccc3[n+]2C)cc1 | 19.8 µM
FC(F)(F)c1ccc2c(c1)N(CCCN1CCN(CCCl)CC1)c1ccccc1S2 | 110 µM

Compound | IC50
CCCOc1ccc(C(=O)NC(=S)N2CCN(c3cc4c(cc3F)c(=O)c(C(=O)O)cn4CC)CC2)cc1 | 56.5 µM
Cc1ccccc1NC(=O)CCC(=O)N/N=C/c1cc([N+](=O)[O-])ccc1O | 48.6 µM
COc1cccc(/C=N/Nc2ncc(C(F)(F)F)cc2Cl)c1O | 126 µM
COc1ccc(C(C[N+](=O)[O-])n2nc(C)cc2C)cc1 (stereo not given) | 13.4 µM
CS(=O)(=O)c1ccc([C@@H](O)[C@@H](CO)NC(=O)C(Cl)Cl)cc1 | 86.2 µM
CCn1cc(C(=O)O)c(=O)c2cc(F)c(N3CCN(C(=S)NC(=O)c4ccc(F)cc4)CC3)cc21 | 104 µM
O=C(Cn1nc(CNc2ccc(Cl)cc2)[n+]2c1CCCCC2)c1ccc(Br)cc1 | 72.1 µM
Nc1nc2ccccc2n1Cc1ccc(Cl)c(Cl)c1 | 76.5 µM
Cc1ccc(/C=C/C(=O)c2ccccc(=O)c2O)cc1C | 25 µM
C=CC#CC[N+]1(CC#Cc2ccccc2)CCOCC1 | 34.3 µM
COC(=O)C1C(O)C(C)C(O)C(C)(O)/C=C\C=C(/C)C(=O)Nc2c(C)c(OC(C)=O)c3c(c2O)C(=O)C(C)=C2OCOC(=C23)/C(C)=C/C(C)(O)C(O)C(C)C1O (stereo not given) | 12.6 µM
CC(C)(C)CC(C)(C)c1ccc(OCCOCC[N+](C)(C)Cc2ccccc2)cc1 | 32.8 µM
CCNC(=S)NNC(=O)c1ccccn1 | 36.4 µM
CCCCCCCCCC[N+](C)(C)CC/C=C1/c2ccccc2Sc2ccc(Cl)cc21 | 18.9 µM
CCCCCCNC(=O)c1cn(CC)c2cc(N3CCN(C)CC3)c(F)cc2c1=O | 38.9 µM
NCC12CC3CC(C1)CC(c1ccc(Br)cc1)(C3)C2 | 40.3 µM
Nc1nonc1-n1nnc(C(=O)N/N=C/c2cc(Br)ccc2O)c1CSC1=NCCS1 | 19.3 µM
CC(=O)NC(c1ccc(C)cc1)c1cc([N+](=O)[O-])c2cccnc2c1O (stereo not given) | 33.5 µM
O=C(c1ccc(F)cc1)C(CN1CCOCC1)c1ccccc1 (stereo not given) | 144 µM
Oc1cccc2ccc(Nc3ccccn3)nc12 | 10.7 µM
CCCCCCCCn1c2c(c(=N)c3ccccc31)CCC2 | 38.9 µM
O=C(O)CSc1cc(NS(=O)(=O)c2cccc([N+](=O)[O-])c2)c2ccccc2c1O | 83.5 µM
O=C(NNC(=O)c1cnccn1)c1ccc(Cl)cc1 | 117 µM
CCn1cc(C(=O)O)c(=O)c2cc(F)c(N3CCN(C(=S)NC(=O)c4cccc(F)c4)CC3)cc21 | 69.6 µM
Nc1ncn([C@@H]2O[C@H](CO)[C@@H](O)[C@H]2O)c(=O)n1 | 33.6 µM
CC(=O)NC(c1ccc(Cl)cc1Cl)c1ccc2cccnc2c1O (stereo not given) | 48.8 µM
CCCCNC(=O)c1cn(CC)c2cc(N3CCN(C)CC3)c(F)cc2c1=O | 41.8 µM
